Measurements reported in PMC5011961, “In vitro antimicrobial activities of animal-used quinoxaline 1,4-di-N-oxides against mycobacteria, mycoplasma and fungi” (BMC Veterinary Research, 2016).
In brackets after ≈: the same amount, converted by molar mass. Where two headings read alike, the source gives them in different places.

Legend:
[1] = system: M. bovis ATCC 19210; assay: microbe, parasite or virus in culture; assay type: cell-based, Mycobacterium bovis
[2] = system: M. tuberculosis H37Rv ATCC 27294; assay: Microdilution alamar blue assay (MABA); assay type: cell-based, Mycobacterium tuberculosis
[3] = system: PPV; assay: Antiviral assay (CPE/MTT; adsorption inhibition, infection inhibition, virucidal); assay type: cell-based, porcine parvovirus; parameters: key to IC50: “--” represent not detected owing to the low inhibition ratio; settings: for IC50: PPV, mean±SD of four experiments
[4] = system: Marc-145 cells; assay: Cytotoxicity assay (MTT); settings: for TC50: Marc-145, 72 h, MTT, mean ± SD, n = 4; for MNTC: Marc-145, maximum non-cytotoxic concentration (90 % cell viability)
[5] = system: DF-1 cells; assay: Cytotoxicity assay (MTT); settings: for TC50: DF-1, 72 h, MTT, mean ± SD, n = 4; for MNTC: DF-1, maximum non-cytotoxic concentration (90 % cell viability)
[6] = system: PRRSV; assay: Antiviral assay (CPE/MTT; adsorption inhibition, infection inhibition, virucidal); assay type: cell-based, porcine reproductive and respiratory syndrome virus; parameters: key to IC50: “--”represent not detected owing to the low inhibition ratio; settings: for IC50: PRRSV, mean±SD of four experiments
[7] = system: PK-15 cells; assay: Cytotoxicity assay (MTT); settings: for TC50: PK-15, 72 h, MTT, mean ± SD, n = 4; for MNTC: PK-15, maximum non-cytotoxic concentration (90 % cell viability)
[8] = system: IBDV; assay: Antiviral assay (CPE/MTT; adsorption inhibition, infection inhibition, virucidal); assay type: cell-based, infectious bursal disease virus; parameters: key to IC50: “--” represent not detected owing to the low inhibition ratio; settings: for IC50: IBDV, mean±SD of four experiments
[9] = system: M. gallisepticum; assay: Antimycoplasma assay, MIC in microtiter plates; settings: Mycoplasmoides gallisepticum
Method: Briefly, 96-well microtiter Sensititre plates containing stabilized and freeze-dried antimicrobials were used. Three wells on each plate were set as antimicrobial free growth control. Freshly thawed mycoplasma isolates with known titers were diluted in liquid medium until the number of organisms reached 10^4 color changing units/mL. 50 μL of the diluted culture was transferred into each well of the Sensititre plates. […] The plates were sealed using an adhesive foil and incubated at 36 °C for 14 days. The growth of M. hyopneumoniae was observed daily when the color of the medium changed from red to yellow (phenol red indicator), and the initial and final MICs were recorded.

[10] = Mycobacterium tuberculosis variant bovis, ATCC19210
[11] = Mycobacterium tuberculosis, read-out: MIC
[12] = M. gallisepticum BG44T (10^4ccu/mL)
[13] = M. gallisepticum PG31 (10^8 ccu/mL)
[14] = in words, infection inhibition, virucidal and adsorption inhibition assays

## NCC[C@H](O)C(=O)N[C@@H]1C[C@H](N)[C@@H](O[C@H]2O[C@H](CN)[C@@H](O)[C@H](O)[C@H]2O)[C@H](O)[C@H]1O[C@H]1O[C@H](CO)[C@@H](O)[C@H](N)[C@H]1O [Amikacin]
[1]; [10]
  MIC: 1.6 µg/mL (≈ 2.73 µM)
[2]; [11]
  MIC: 3.2 µg/mL (≈ 5.46 µM)

## N#CCC(=O)N/N=C/c1cnc2ccccc2n1 [Cy1, bi-deoxy Cyadox]
[3]; Inactivation
  IC50: --
[3]; Prevention
  IC50: --
[3]; Treatment
  IC50: --
[4]
  TC50: 37.83 ± 1.67 µg/mL (≈ 158 µM)
  MNTC: 3.9 µg/mL
[5]
  TC50: 32.97 ± 2.35 µg/mL (≈ 138 µM)
  MNTC: 2.0 µg/mL
[6]; Inactivation
  IC50: --
[6]; Prevention
  IC50: --
[6]; Treatment
  IC50: --
[7]
  TC50: 23.40 ± 2.14 µg/mL (≈ 97.8 µM)
  MNTC: 2.0 µg/mL
[8]; Inactivation
  IC50: --
[8]; Prevention
  IC50: --
[8]; Treatment
  IC50: --

## N#CCC(=O)N/N=C/c1cnc2ccccc2[n+]1[O-] [Cy2, N4-deoxy cyadox]
[3]; Inactivation
  IC50: --
[3]; Prevention
  IC50: --
[3]; Treatment
  IC50: --
[4]
  TC50: 96.55 ± 3.12 µg/mL (≈ 378 µM)
  MNTC: 2.0 µg/mL
[5]
  TC50: 35.48 ± 2.87 µg/mL (≈ 139 µM)
  MNTC: 1.0 µg/mL
[6]; Inactivation
  IC50: --
[6]; Prevention
  IC50: --
[6]; Treatment
  IC50: --
[7]
  TC50: 51.73 ± 2.96 µg/mL (≈ 203 µM)
  MNTC: 2.0 µg/mL
[8]; Inactivation
  IC50: --
[8]; Prevention
  IC50: --
[8]; Treatment
  IC50: --

## N#CCC(=O)N/N=C/c1c[n+]([O-])c2ccccc2n1 [Cy10, N1-deoxy cyadox]
[3]; Inactivation
  IC50: --
[3]; Prevention
  IC50: --
[3]; Treatment
  IC50: --
[4]
  TC50: 33.62 ± 1.85 µg/mL (≈ 132 µM)
  MNTC: 2.0 µg/mL
[5]
  TC50: 49.2 ± 1.93 µg/mL (≈ 193 µM)
  MNTC: 2.0 µg/mL
[6]; Inactivation
  IC50: --
[6]; Prevention
  IC50: --
[6]; Treatment
  IC50: --
[7]
  TC50: 25.27 ± 1.55 µg/mL (≈ 99 µM)
  MNTC: 2.0 µg/mL
[8]; Inactivation
  IC50: --
[8]; Prevention
  IC50: --
[8]; Treatment
  IC50: --

## CN1C[C@@H]2C[C@H]1CN2c1cc2c(cc1F)c(=O)c(C(=O)O)cn2C1CC1 [Danofloxacin, danofloxacin]
[9]; [12]
  MIC: 0.05 µg/mL (≈ 0.14 µM)
[9]; [13]
  MIC: 0.05 µg/mL (≈ 0.14 µM)

## C[C@H]1c2cccc(O)c2C(=O)C2=C(O)[C@]3(O)C(=O)C(C(N)=O)=C(O)[C@@H](N(C)C)[C@@H]3[C@@H](O)[C@@H]21 [Doxycycline, doxycycline]
[9]; [12]
  MIC: 0.1 µg/mL (≈ 0.225 µM)
[9]; [13]
  MIC: 0.2 µg/mL (≈ 0.45 µM)

## CC[C@@H](CO)NCCN[C@@H](CC)CO [Ethambutol, ethambutol]
[1]; [10]
  MIC: 0.025 µg/mL (≈ 0.122 µM)
[2]; [11]
  MIC: 0.025 µg/mL (≈ 0.122 µM)

## NC[C@H]1O[C@H](O[C@H]2[C@H](O)[C@@H](O[C@H]3O[C@H](CO)[C@@H](O)[C@H](N)[C@H]3O)[C@H](N)C[C@@H]2N)[C@H](O)[C@@H](O)[C@@H]1O [Kanamycin]
[1]; M. bovis ATCC 19210
  MIC: 0.2 µg/mL (≈ 0.413 µM)
[2]
  MIC: 0.2 µg/mL (≈ 0.413 µM)

## CO[C@@H]1[C@@H](O[C@@H]2O[C@H](C)[C@@H](O[C@H]3C[C@@](C)(O)[C@@H](OC(=O)CC(C)C)[C@H](C)O3)[C@H](N(C)C)[C@H]2O)[C@@H](CC=O)C[C@@H](C)[C@@H](O)/C=C/C=C/C[C@@H](C)OC(=O)C[C@H]1O [Kitasamycin, kitasamycin]
[9]; [12]
  MIC: 0.05 µg/mL (≈ 0.0636 µM)
[9]; [13]
  MIC: 0.05 µg/mL (≈ 0.0636 µM)

## CCC[C@@H]1C[C@@H](C(=O)N[C@@H]([C@H]2O[C@H](SC)[C@H](O)[C@@H](O)[C@H]2O)[C@@H](C)O)N(C)C1 [Lincomycin, lincomycin]
[9]; [12]
  MIC: 8 µg/mL (≈ 19.7 µM)
[9]; [13]
  MIC: 8 µg/mL (≈ 19.7 µM)

## CC(=O)c1nc2ccccc2nc1C [M1, bi-deoxy Mequindox]
[3]; Inactivation
  IC50: --
[3]; Prevention
  IC50: --
[3]; Treatment
  IC50: --
[4]
  TC50: 70.77 ± 1.57 µg/mL (≈ 380 µM)
  MNTC: 1.0 µg/mL
[5]
  TC50: 54.8 ± 1.93 µg/mL (≈ 294 µM)
  MNTC: 1.0 µg/mL
[6]; Inactivation
  IC50: --
[6]; Prevention
  IC50: --
[6]; Treatment
  IC50: --
[7]
  TC50: 72.90 ± 2.66 µg/mL (≈ 391 µM)
  MNTC: 2.0 µg/mL
[8]; Inactivation
  IC50: --
[8]; Prevention
  IC50: --
[8]; Treatment
  IC50: --

## Cc1c(C(C)O)nc2ccccc2[n+]1[O-] (centres unmarked) [M4, carbonyl reduction N1-deoxy mequindox]
[3]; Inactivation
  IC50: --
[3]; Prevention
  IC50: --
[3]; Treatment
  IC50: --
[4]
  TC50: 128.62 ± 2.67 µg/mL (≈ 630 µM)
  MNTC: 3.9 µg/mL
[5]
  TC50: 37.75 ± 2.68 µg/mL (≈ 185 µM)
  MNTC: 1.0 µg/mL
[6]; Inactivation
  IC50: --
[6]; Prevention
  IC50: --
[6]; Treatment
  IC50: --
[7]
  TC50: 40.81 ± 1.27 µg/mL (≈ 200 µM)
  MNTC: 3.9 µg/mL
[8]; Inactivation
  IC50: --
[8]; Prevention
  IC50: --
[8]; Treatment
  IC50: --

## Cc1nc2ccccc2nc1C(C)O (centres unmarked) [M5, carbonyl reduction bi-deoxy mequindox]
[3]; Inactivation
  IC50: --
[3]; Prevention
  IC50: --
[3]; Treatment
  IC50: --
[4]
  TC50: 89.66 ± 2.14 µg/mL (≈ 476 µM)
  MNTC: 2.0 µg/mL
[5]
  TC50: 38.2 ± 2.09 µg/mL (≈ 203 µM)
  MNTC: 2.0 µg/mL
[6]; Inactivation
  IC50: --
[6]; Prevention
  IC50: --
[6]; Treatment
  IC50: --
[7]
  TC50: 40.41 ± 3.21 µg/mL (≈ 215 µM)
  MNTC: 2.0 µg/mL
[8]; Inactivation
  IC50: --
[8]; Prevention
  IC50: --
[8]; Treatment
  IC50: --

## Cc1c(C(C)O)[n+]([O-])c2ccccc2[n+]1[O-] (centres unmarked) [M6, carbonyl reduction mequindox]
[3]; Inactivation
  IC50: --
[3]; Prevention
  IC50: --
[3]; Treatment
  IC50: --
[4]
  TC50: 89.82 ± 1.57 µg/mL (≈ 408 µM)
  MNTC: 2.0 µg/mL
[5]
  TC50: 41.26 ± 1.27 µg/mL (≈ 187 µM)
  MNTC: 2.0 µg/mL
[6]; Inactivation
  IC50: --
[6]; Prevention
  IC50: --
[6]; Treatment
  IC50: --
[7]
  TC50: 78.82 ± 3.57 µg/mL (≈ 358 µM)
  MNTC: 2.0 µg/mL
[8]; Inactivation
  IC50: --
[8]; Prevention
  IC50: --
[8]; Treatment
  IC50: --

## NC(=O)c1ncn([C@@H]2O[C@H](CO)[C@@H](O)[C@H]2O)n1 [Ribavirin, ribavirin]
[3]; Porcine parvovirus, Inactivation, read-out: IC50
  IC50: 0.85 ± 0.17 µg/mL
[3]; Porcine parvovirus, Prevention, read-out: IC50
  IC50: 0.68 ± 0.15 µg/mL
[3]; Porcine parvovirus, Treatment, read-out: IC50
  IC50: 0.49 ± 0.07 µg/mL
[3]; [14]
  effectiveness against PPV in vitro: good inhibitory activity
[4]
  TC50: 75.49 ± 2.54 µg/mL (≈ 309 µM)
  MNTC: 8.6 µg/mL
[5]
  TC50: 67.42 ± 2.58 µg/mL (≈ 276 µM)
  MNTC: 4.0 µg/mL
[6]; Porcine reproductive and respiratory syndrome virus, Inactivation, read-out: IC50
  IC50: 6.29 ± 0.38 µg/mL
[6]; Porcine reproductive and respiratory syndrome virus, Prevention, read-out: IC50
  IC50: 9.58 ± 0.56 µg/mL
[6]; Porcine reproductive and respiratory syndrome virus, Treatment, read-out: IC50
  IC50: 4.64 ± 0.24 µg/mL
[6]; [14]
  effectiveness against PRRSV in vitro: good inhibitory activity
[8]; Infectious bursal disease virus, Inactivation, read-out: IC50
  IC50: 1.18 ± 0.21 µg/mL
[8]; Infectious bursal disease virus, Prevention, read-out: IC50
  IC50: 0.87 ± 0.18 µg/mL
[8]; Infectious bursal disease virus, Treatment, read-out: IC50
  IC50: 0.58 ± 0.12 µg/mL
[8]; [14]
  effectiveness against IBDV in vitro: good inhibitory activity

## CN(C)[C@@H]1C(O)=C(C(N)=O)C(=O)[C@@]2(O)C(O)=C3C(=O)c4c(O)cccc4[C@@](C)(O)[C@H]3C[C@@H]12 [Tetracycline, tetracycline]
[9]; [12]
  MIC: 0.4 µg/mL (≈ 0.9 µM)
[9]; [13]
  MIC: 0.8 µg/mL (≈ 1.8 µM)
